Measurements from ChEMBL document CHEMBL4819021, “Paratrimerins J-Y, Dimeric Coumarins Isolated from the Stems of Paramignya trimera” (J Nat Prod, 2021).
The source made the active and inactive calls. The rule behind the calls is not given here.

Assays:
Type in all cases: functional, cell-based
MDA-MB-231 = experiment: Cytotoxicity against human MDA-MB-231 cells assessed as reduction in cell viability at 40 uM measured after 72 hrs by MTS assay
SK-BR-3 = experiment: Cytotoxicity against human SK-BR-3 cells assessed as reduction in cell viability at 40 uM measured after 72 hrs by MTS assay
HCT-8 = experiment: Cytotoxicity against human HCT-8 cells assessed as reduction in cell viability at 40 uM measured after 72 hrs by MTS assay
SW480 = experiment: Cytotoxicity against human SW480 cells assessed as reduction in cell viability at 40 uM measured after 72 hrs by MTS assay
HCC1428 = experiment: Cytotoxicity against human HCC1428 cells assessed as reduction in cell viability at 40 uM measured after 72 hrs by MTS assay
COLO 205 = experiment: Cytotoxicity against human COLO 205 cells assessed as reduction in cell viability at 40 uM measured after 72 hrs by MTS assay
HCT-116 = experiment: Cytotoxicity against human HCT-116 cells assessed as reduction in cell viability at 40 uM measured after 72 hrs by MTS assay
BT-549 = experiment: Cytotoxicity against human BT-549 cells assessed as reduction in cell viability at 40 uM measured after 72 hrs by MTS assay
SW-620 = experiment: Cytotoxicity against human SW-620 cells assessed as reduction in cell viability at 40 uM measured after 72 hrs by MTS assay
Hs-578T = experiment: Cytotoxicity against human Hs-578T cells assessed as reduction in cell viability at 40 uM measured after 72 hrs by MTS assay
RKO = experiment: Cytotoxicity against human RKO cells assessed as reduction in cell viability at 40 uM measured after 72 hrs by MTS assay
T47D = experiment: Cytotoxicity against human T47D cells assessed as reduction in cell viability at 40 uM measured after 72 hrs by MTS assay
MDA-MB-468 = experiment: Cytotoxicity against human MDA-MB-468 cells assessed as reduction in cell viability at 40 uM measured after 72 hrs by MTS assay
HCC38 = experiment: Cytotoxicity against human HCC38 cells assessed as reduction in cell viability at 40 uM measured after 72 hrs by MTS assay
SK-HEP1 = experiment: Cytotoxicity against human SK-HEP1 cells assessed as reduction in cell viability at 40 uM measured after 72 hrs by MTS assay
HCC70 = experiment: Cytotoxicity against human HCC70 cells assessed as reduction in cell viability at 40 uM measured after 72 hrs by MTS assay
MDA-MB-435 = experiment: Cytotoxicity against human MDA-MB-435 cells assessed as reduction in cell viability at 40 uM measured after 72 hrs by MTS assay
KM12 = experiment: Cytotoxicity against human KM12 cells assessed as reduction in cell viability at 40 uM measured after 72 hrs by MTS assay
MCF7 = experiment: Cytotoxicity against human MCF7 cells assessed as reduction in cell viability at 40 uM measured after 72 hrs by MTS assay
Huh-7 = experiment: Cytotoxicity against human Huh-7 cells assessed as reduction in cell viability measured after 72 hrs by MTS assay; conditions: Huh-7, 72 h
HT-1080 = experiment: Cytotoxicity against human HT-1080 cells assessed as reduction in cell viability measured after 72 hrs by MTS assay; conditions: HT-1080, 72 h
HT-29 = experiment: Cytotoxicity against human HT-29 cells harboring Ras/Raf mutant assessed as reduction in cell viability measured after 72 hrs by MTS assay; conditions: HT-29, 72 h

SMILES	Activity (MDA-MB-231)	Activity (SK-BR-3)	Activity (HCT-8)	Activity (SW480)	Activity (HCC1428)	Activity (COLO 205)	Activity (HCT-116)	Activity (BT-549)	Activity (SW-620)	Activity (Hs-578T)	Activity (RKO)	Activity (T47D)	Activity (MDA-MB-468)	Activity (HCC38)	Activity (SK-HEP1)	Activity (HCC70)	Activity (MDA-MB-435)	Activity (KM12)	Activity (MCF7)	further results
CC1=C[C@@H](c2cc3ccc(=O)oc3cc2O[C@@H]2O[C@H](CO)[C@@H](O)[C@H](O)[C@H]2O)[C@@](C)(/C=C/c2cc3ccc(=O)oc3cc2O[C@@H]2O[C@H](COC3OC[C@@H](O)[C@H](O)[C@H]3O)[C@@H](O)[C@H](O)[C@H]2O)CC1 (some centres undefined)	inactive	inactive	inactive	inactive	inactive	inactive	inactive	inactive	inactive	inactive	inactive	inactive	inactive	inactive	inactive	inactive	inactive	inactive	inactive	–
CC1=C[C@H](c2cc3ccc(=O)oc3cc2O[C@@H]2O[C@H](COC3OC[C@@H](O)[C@H](O)[C@H]3O)[C@@H](O)[C@H](O)[C@H]2O)[C@](C)(/C=C/c2cc3ccc(=O)oc3cc2O[C@@H]2O[C@H](COC3OC[C@@H](O)[C@H](O)[C@H]3O)[C@@H](O)[C@H](O)[C@H]2O)CC1 (some centres undefined)	inactive	inactive	inactive	inactive	inactive	inactive	inactive	inactive	inactive	inactive	inactive	inactive	inactive	inactive	inactive	inactive	inactive	inactive	inactive	–
CC1=C[C@@H](c2cc3ccc(=O)oc3cc2O[C@@H]2O[C@H](CO)[C@@H](O)[C@H](O)[C@H]2O)[C@@](C)(/C=C/c2cc3ccc(=O)oc3cc2O[C@@H]2O[C@H](CO[C@@H]3OC[C@](O)(CO)[C@H]3O)[C@@H](O)[C@H](O)[C@H]2O)CC1	inactive	inactive	inactive	inactive	inactive	inactive	inactive	inactive	inactive	inactive	inactive	inactive	inactive	inactive	inactive	inactive	inactive	inactive	inactive	–
CC1=C[C@H](c2cc3ccc(=O)oc3cc2O[C@@H]2O[C@H](CO)[C@@H](O)[C@H](O)[C@H]2O)[C@@](C)(/C=C/c2cc3ccc(=O)oc3cc2O[C@@H]2O[C@H](COC3OC[C@@H](O)[C@H](O)[C@H]3O)[C@@H](O)[C@H](O)[C@H]2O)CC1 (some centres undefined)	inactive	inactive	inactive	inactive	inactive	inactive	inactive	inactive	inactive	inactive	inactive	inactive	inactive	inactive	inactive	inactive	inactive	inactive	inactive	–
CC1=C[C@@H](c2cc3ccc(=O)oc3cc2O[C@@H]2O[C@H](COC3OC[C@@H](O)[C@H](O)[C@H]3O)[C@@H](O)[C@H](O)[C@H]2O)[C@@](C)(/C=C/c2cc3ccc(=O)oc3cc2O[C@@H]2O[C@H](CO)[C@@H](O)[C@H](O)[C@H]2O)CC1 (some centres undefined)	inactive	inactive	inactive	inactive	inactive	inactive	inactive	inactive	inactive	inactive	inactive	inactive	inactive	inactive	inactive	inactive	inactive	inactive	inactive	–
CC1=C[C@H](c2cc3ccc(=O)oc3cc2O[C@@H]2O[C@H](COC3OC[C@@H](O)[C@H](O)[C@H]3O)[C@@H](O)[C@H](O)[C@H]2O)[C@@](C)(/C=C/c2cc3ccc(=O)oc3cc2O[C@@H]2O[C@H](CO)[C@@H](O)[C@H](O)[C@H]2O)CC1 (some centres undefined)	inactive	inactive	inactive	inactive	inactive	inactive	inactive	inactive	inactive	inactive	inactive	inactive	inactive	inactive	inactive	inactive	inactive	inactive	inactive	–
CC1=C[C@H](c2cc3ccc(=O)oc3cc2O[C@@H]2O[C@H](COC3OC[C@@H](O)[C@H](O)[C@H]3O)[C@@H](O)[C@H](O)[C@H]2O)[C@](C)(/C=C/c2cc3ccc(=O)oc3cc2O[C@@H]2O[C@H](CO)[C@@H](O)[C@H](O)[C@H]2O)CC1 (some centres undefined)	inactive	inactive	inactive	inactive	inactive	inactive	inactive	inactive	inactive	inactive	inactive	inactive	inactive	inactive	inactive	inactive	inactive	inactive	inactive	–
CC1=C[C@@H](c2cc3ccc(=O)oc3cc2O[C@@H]2O[C@H](CO[C@@H]3OC[C@](O)(CO)[C@H]3O)[C@@H](O)[C@H](O)[C@H]2O)[C@@](C)(/C=C/c2cc3ccc(=O)oc3cc2O[C@@H]2O[C@H](CO)[C@@H](O)[C@H](O)[C@H]2O)CC1	inactive	inactive	inactive	inactive	inactive	inactive	inactive	inactive	inactive	inactive	inactive	inactive	inactive	inactive	inactive	inactive	inactive	inactive	inactive	–
CC1=C[C@@H](c2cc3ccc(=O)oc3cc2O[C@@H]2O[C@H](COC3OC[C@@H](O)[C@H](O)[C@H]3O)[C@@H](O)[C@H](O)[C@H]2O)[C@@](C)(/C=C/c2cc3ccc(=O)oc3cc2O[C@@H]2O[C@H](COC3OC[C@@H](O)[C@H](O)[C@H]3O)[C@@H](O)[C@H](O)[C@H]2O)CC1 (some centres undefined)	inactive	inactive	inactive	inactive	inactive	inactive	inactive	inactive	inactive	inactive	inactive	inactive	inactive	inactive	inactive	inactive	inactive	inactive	inactive	–
CC(C)=CCC/C(C)=C/Cc1cc(/C=C/C(=O)O[C@@H](Cc2c(OCC=C(C)C)ccc3ccc(=O)oc23)C(C)(C)O)c(O)cc1O	–	–	–	–	–	–	–	–	–	–	–	–	–	–	–	–	–	–	–	IC50 (Huh-7): 14.9 µM; IC50 (HT-1080): 18.4 µM; IC50 (HT-29): 22.5 µM
